Measurements reported in publication PMC4604100, “Melanocortin agonists stimulate lipolysis in human adipose tissue explants but not in adipocytes” (BMC Research Notes, 2015).
Entries after “also recorded” stand apart in the source; their conditions may differ. Where no end group is shown, it is not given here.

Assays:
MC4R over MC3R = conditions: factor; ref [46] Greenfield et al.; cited from earlier work
[1] = test system: intact human white adipose tissue explants; experiment: NEFA release in human WAT explants (lipolysis); format: cell-based; conditions: for increase in NEFA release compared to vehicle: 100 nM, 3 h stimulation, mean of 6 (α-MSH 3) independent experiments in triplicate wells; for increase in NEFA release compared to vehicle / stimulation of NEFA release / lipolysis (in words): subcutaneous explants from non-obese females; for Emax of lipolysis compared to isoproterenol (in words): intact human WAT explants; for stimulation of NEFA release / lipolysis (in words): 100 nM–10 μM, 3 h, one-tailed t test vs. vehicle
Method: (§1) Adipose tissue biopsies used for stimulation of lipolysis were taken from the subcutaneous abdominal region by needle aspiration as previously described. The experimental group consisted of 6 non-diabetic females with a normal/preobese BMI (average BMI = 25.5). All biopsies were transported in sterile containers to the laboratory within 30 min after removal. The biopsies were washed repeatedly with isotonic saline and were used for subsequent culture.
(§2) Induction of NEFA and glycerol release in adipocytes and intact adipose tissue explants was used as a measure of lipolysis with β-adrenergic agonist isoproterenol as a positive control as previously described. When using propranolol, 10 μM was used as final concentration. 250 mg of human adipose tissue was placed in 15 mL tubes, immediately covered with 2.5 mL of preheated (37 °C) hyclone media and preincubated for 24 h. After 24 h, the media was replenished and explants were stimulated with the indicated melanocortin peptide for 3 h before harvesting the supernatant for NEFA and glycerol analysis. In house testing has shown no indications of hypoxia when stimulating explants (data not shown). All test compounds were dissolved to 4 mM in DMSO (highest DMSO concentration of 0.25 % in the assay) and diluted in DPBS buffer + 2 % bovine serum albumin (BSA). Human subcutaneous adipocytes purchased from Zenbio Inc., were used in stimulation of lipolysis (n = 4). These adipocytes have been isolated from obese males. When receiving the cells (and partially during transportation), the cells was differentiated from a pre-state to a mature state before the cells are used for experiments. The cells were handled according to the description from ZenBio Inc. Two hours was chosen as the optimal incubation time span for primary adipocytes, based on similar experiments in other species. […] Measures of melanocortin-stimulated glycerol release were added in explant lipolysis studies.
(§3) Data from the NEFA and the glycerol assay were obtained using the protocol supplied by the manufactures. Released NEFAs were analyzed in Graphpad Prism and one-tailed t test was used to calculate statistical significance between 2 groups (*p < 0.05, **p < 0.01, ***p < 0.001, no * indicates insignificance). Ki values in bindings studies were calculated as Ki = IC50/1 + [radioligand]/Kd. Data from binding studies was analyzed in Graphpad Prism.

MC4R over MC1R = conditions: factor; ref [46] Greenfield et al.; cited from earlier work
[2] = test system: intact human white adipose tissue explants; experiment: Glycerol release in human WAT explants (lipolysis); format: cell-based; conditions: subcutaneous explants from non-obese females, 100 nM–10 μM, 3 h; mean of 2 independent experiments in triplicate wells
Method: as §1
Induction of NEFA and glycerol release in adipocytes and intact adipose tissue explants was used as a measure of lipolysis with β-adrenergic agonist isoproterenol as a positive control as previously described. When using propranolol, 10 μM was used as final concentration. 250 mg of human adipose tissue was placed in 15 mL tubes, immediately covered with 2.5 mL of preheated (37 °C) hyclone media and preincubated for 24 h. After 24 h, the media was replenished and explants were stimulated with the indicated melanocortin peptide for 3 h before harvesting the supernatant for NEFA and glycerol analysis. In house testing has shown no indications of hypoxia when stimulating explants (data not shown). All test compounds were dissolved to 4 mM in DMSO (highest DMSO concentration of 0.25 % in the assay) and diluted in DPBS buffer + 2 % bovine serum albumin (BSA). Human subcutaneous adipocytes purchased from Zenbio Inc., were used in stimulation of lipolysis (n = 4). These adipocytes have been isolated from obese males. When receiving the cells (and partially during transportation), the cells was differentiated from a pre-state to a mature state before the cells are used for experiments. […]
as §3

human MCRs = experiment: Binding rank order across human MCRs; conditions: order of affinity
Method: (§4) The human MC1R, MC3R, MC4R and MC5R were cloned by PCR and subcloned into the pcDNA3 expression vector, as previously described by Conde-Frieboes et al.. Cells stably expressing the human MCRs were generated by transfecting the expression vector into BHK570 cells (ATTC) and using 1 mg/mL G418 to select for stable clones. The stable cell lines were cultured in DMEM with glutamax, 10 % FCS, 1 % pen/strep, and 1 mg/mL G418 at 37 °C and 5 % CO2. […] Test compounds were dissolved to a 4 mM concentration in DMSO and diluted in a receptor specific binding buffer. […] A filtration system was employed to separate bound from unbound radioligand.
(§5) Data analysis and statistics

[3] = test system: human subcutaneous adipocytes; experiment: NEFA release in differentiated human subcutaneous adipocytes; format: cell-based; conditions: for stimulation of NEFA release (in words): human subcutaneous adipocytes (ZenBio, obese males), 1 pM–10 μM, n = 4
Method: as §2, §3

MC3R = conditions: antagonist; ref [47]; cited from earlier work
hMC1R = target: T1, hMC1R (Homo sapiens, UniProt Q01726); experiment: Competition binding of 125I-NDP-α-MSH to membranes of BHK570 cells expressing hMC1R; conditions: competition with fixed 125I-NDP-α-MSH, test compound 1 pM–10 μM, filtration, average of repeated independent experiments ± SEM, n = 3 (α-MSH n = 18)
T1 construct: expressed in transfected cells
Method: as §4, §5

MC5R = conditions: agonist; ref [47]; cited from earlier work
[4] = test system: human white adipose tissue (WAT) explants; experiment: NEFA release in human WAT explants ± propranolol; format: cell-based
Method: as §1, §2, §3

WAT = test system: WAT; parameters: method as in earlier work; conditions: intranasal administration; ref [50] Wellhöner et al.; cited from earlier work
Description: However, it should be taken into account, that there may be downstream MCR mechanisms of propranolol that are unknown, which is a precaution using this antagonist. Depleting the explants with reserpine before stimulation could add additional confidence to the ...

[5] = test system: mesenchymal stem cell-derived adipocytes; conditions: ref [52] Hoch et al.; cited from earlier work
Description: (§6) The lack of lipolytic response seen in adipocytes is supported by previous studies by Hoch et al. [[5 ...

[6] = test system: mesenchymal stem cell-derived adipocytes; intact adipose tissue explants; conditions: mesenchymal stem cell-derived adipocytes or intact adipose tissue explants; ref [52] Hoch et al.; cited from earlier work
Description: as §6

primary mouse adipocytes = conditions: mediated by MC2R and MC5R, ref [35], [37], [38]; cited from earlier work
Description: as §6

[7] = test system: adipocytes or intact human adipose tissue; conditions: own finding "supported by other studies", ref [51], [52]; cited from earlier work
Description: (§7) ACTH is a larger peptide than both α-MSH and the synthetic melanocortin compounds used in this study.

[8] = test system: adipocytes isolated from subcutaneous adipose tissue; conditions: adipocytes isolated from subcutaneous adipose tissue of non-diabetic human; ref [53] Xue et al.; cited from earlier work
Description: as §7

rabbit adipocytes = conditions: ref [39] Richter et al.; cited from earlier work
Description: MC5R is extensively distributed in the periphery, and is reported to regulate sebaceous gland secretion and fatty acid oxidation in skeletal muscle. The melanocortin system has a well-established lipolytic effect in rodent adipose tissues. Studies in murine primary adipocytes and differentiated 3T3-L1 adipocytes show a direct lipolytic effect of MC2R and MC5R when stimulated by various endogenous and synthetic melanocortin agonists.

T1 sequence (Q01726 whole entry): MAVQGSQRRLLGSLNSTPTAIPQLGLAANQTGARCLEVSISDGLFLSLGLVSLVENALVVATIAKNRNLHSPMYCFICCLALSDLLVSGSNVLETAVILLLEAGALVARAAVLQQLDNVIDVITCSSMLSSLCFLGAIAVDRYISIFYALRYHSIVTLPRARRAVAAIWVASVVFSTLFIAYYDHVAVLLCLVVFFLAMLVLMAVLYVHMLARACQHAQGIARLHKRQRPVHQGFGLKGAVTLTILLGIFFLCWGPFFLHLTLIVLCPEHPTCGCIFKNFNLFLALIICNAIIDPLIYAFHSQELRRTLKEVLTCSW

CC(=O)N[C@H](CCCNC(=N)N)C(=O)N[C@H]1CSSC[C@@H](C(N)=O)NC(=O)[C@H](Cc2c[nH]c3ccccc23)NC(=O)[C@H](CCCNC(=N)N)NC(=O)[C@@H](Cc2ccccc2)NC(=O)[C@H](Cc2c[nH]cn2)NC(=O)[C@H](CCC(=O)O)NC1=O [LY2112688]
increased affinity for MC4R over MC3R (MC4R over MC3R): more than 100 | increase in NEFA release compared to vehicle [1]: 46% | Emax of lipolysis compared to isoproterenol (in words) [1]: relatively lower Emax | stimulation of NEFA release / lipolysis (in words) [1]: significantly stimulated lipolysis; also recorded: stimulated a low, though significant, release of NEFA; also recorded: significantly stimulate release of NEFA | increased affinity for MC4R over MC1R (MC4R over MC1R): more than 30 | stimulation of glycerol release (in words) [2]: stimulated release of glycerol | binding rank order (human MCRs): MC4R > MC3R > MC1R | stimulation of NEFA release (in words) [3]: failed to stimulate NEFA release

CCCC[C@H](NC(C)=O)C(=O)N[C@H]1CC(=O)NCCCC[C@@H](C(N)=O)NC(=O)[C@H](Cc2c[nH]c3ccccc23)NC(=O)[C@H](CCCNC(=N)N)NC(=O)[C@@H](Cc2ccc3ccccc3c2)NC(=O)[C@@H]2CCCN2C1=O [PG-901]
binding to MC3R (in words) (MC3R): high affinity | Ki (hMC1R): 2700 ± 153 nM | increase in NEFA release compared to vehicle [1]: 38% | Emax of lipolysis compared to isoproterenol (in words) [1]: relatively lower Emax | stimulation of NEFA release / lipolysis (in words) [1]: significantly stimulated lipolysis; also recorded: stimulated a low, though significant, release of NEFA; also recorded: significantly stimulate release of NEFA | stimulation of glycerol release (in words) [2]: stimulated release of glycerol | binding to MC5R (in words) (MC5R): high affinity | stimulation of NEFA release (in words) [3]: failed to stimulate NEFA release

CC(C)NCC(O)c1ccc(O)c(O)c1 (stereo not drawn) [isoproterenol]
increase in NEFA release compared to vehicle [1]: 114% | stimulation of NEFA release / lipolysis (in words) [1]: potent release of NEFA | stimulation of NEFA release (in words) [3]: potent release of NEFA

CC(C)NCC(O)COc1cccc2ccccc12 (stereo not drawn) [propranolol]
decrease of LY2112688-stimulated NEFA release (in words) ([4]; 10 μM propranolol + LY2112688 (100 nM–10 μM), female human subcutaneous explants, 3 independent experiments in triplicate wells): did not significantly decrease the release of NEFA | decrease of PG-901-stimulated NEFA release (in words) ([4]; 10 μM propranolol + PG-901 (100 nM–10 μM), female human subcutaneous explants, 3 independent experiments in triplicate wells): significantly decreased the release of NEFA | decrease of isoproterenol-stimulated NEFA release (in words) ([4]; 10 μM propranolol + isoproterenol, female human subcutaneous explants, 3 independent experiments in triplicate wells): significantly decreased the release of NEFA | inhibition of NEFA release on co-incubation (in words) ([4]; propranolol co-incubation, MC4R/MC5R-mediated lipolysis, overview figure): inhibits NEFA release

MSH/ACTH(4-10): intranasally administered melanocortin fragment in Wellhöner et al. (MEHFRWG; Corticotropin; UniProt P01189 141-147, looked up, fragment)
glycerol concentrations in WAT (in words) (WAT): increased glycerol concentrations in WAT

NDP-α-MSH
cAMP response (in words) [5]: weak cAMP response | effect on lipolysis (in words) [6]: did not find an effect on lipolysis

SYSMEHFRWGKPVGKKRRPVKVYPNGAEDESAEAFPLEF [ACTH]
lipolytic capacity (in words) (primary mouse adipocytes): lipolytic capacity | lipolytic capacity (in words) ([1]; intact human adipose tissue): no lipolytic capacity | stimulation of NEFA release / lipolysis (in words) [1]: failed to stimulate NEFA | lipolytic capacity (in words) [7]: no lipolytic capacity | stimulation of lipolysis (in words) [8]: stimulated lipolysis | effect on lipolysis (in words) (rabbit adipocytes): direct effect | stimulation of glycerol release (in words) [2]: failed to stimulate NEFA and glycerol release | binding rank order (human MCRs): MC1R > MC4R > MC3R > MC5R | lipolytic capacity (in words) ([3]; adipocytes): no lipolytic capacity | stimulation of NEFA release (in words) [3]: failed to stimulate NEFA release
